Laboratory results reported in US7312219B2, “Heteroaromatic inhibitors of fructose 1,6-bisphosphatase” (Metabasis Therapeutics, Inc., priority 1998, dated 2007).
Counter-ions that a name gives are not always drawn. Like-named read-outs stand apart in the source and are kept apart here. Blank lines part the entries; values can stand above or below the compound they belong to.

Key:
Fasted Rats = assay: Blood Glucose Lowering Following Intravenous Administration to Fasted Rats; assay type: in vivo, rat; details: 18 h fasted Sprague Dawley rats, 1 hour, relative to saline-treated controls
Protocol: Inhibitors were disolved in water and the solution adjusted to neutrality with NaOH. Blood samples were obtained from the tail vein of conscious animals just prior to injection and after 1 hour. Blood glucose was measured using a HemoCue Inc. glucose analyzer according to the instructions of the manufacturer.

[1] = Analysis of Drug Levels and Liver Accumulation in Rats; assay type: in vivo, rat; details: fasted rats, 10 mgs/kg i.v., one hour post injection; for concentration at 1 h: Sprague-Dawley, rat, iv, read-out: Plasma Conc.; for Plasma Conc. / concentration at 1 h: plasma
Protocol: The compound was dissolved in water and the solution adjusted to neutrality with NaOH. One hour post injection rats were anesthetized with halothane and a liver biopsy (approx. 1 g) was taken as well as a blood sample (2 ml) from the posterior vena cava. A heparin flushed syringe and needle were used for blood collection. The liver sample was immediately homogenized in ice-cold 10% perchloric acid (3 ml), centrifuged, and the supernatant neutralized with ⅓rd volume of 3 M KOH/3 M KHCO3. […] Plasma was prepared from the blood sample by centrifugation and extracted by addition of methanol to 60% (v/v). The methanolic extract was clarified by centrifugation and filtration and then analyzed by HPLC as described above.

Fasted Rat = assay: Glucose Lowering Following Oral Administration to the Fasted Rat; assay type: in vivo; details: oral gavage, 18-hour fasted rats, relative to saline controls
Protocol: Compounds were administered by oral gavage to 18-hour fasted, Sprague Dawley rats (250–300 g, n =3/4/group). Phosphonic acids were prepared in deionized water, and the solution adjusted to neutrality with solidum hydroxide. Prodrugs were dissolved in polyethylene glycol (mw 400). […] The table below indicates the maximum glucose lowering achieved relative to control animals dosed with saline.

[2] = Estimation of the Oral Bioavailability of Phosphonic Acids and their Prodrugs; assay type: in vivo, rat; details: fasted rats, oral 10–50 mg/kg, 24 h urinary recovery of phosphonic acid, oral vs intravenous
Protocol: Phosphonic acids were dissolved in water, and the solution adjusted to neutrality with sodium hydroxide. Prodrugs were dissolved in 10% ethanol/90% polyethlene glycol (mw 400). Compound was administered by oral gavage to 18-hour fasted Sprague-Dawley rats (220–250 g) at doses ranging from 10–50 mg/kg. The rats were subsequently placed in metabolic cages and urine was collected for 24 hours. The quantity of phosphonic acid excreted into urine was determined by HPLC analysis as described in Example G. In a separate study, urinary recovery was determined following intravenous (tail vein) administration of compound (in the case of the prodrugs, the appropriate parent phosphonic acid was administered i.v.).

[3] = system: Gluconeogenesis in Rat Hepatocytes; assay: Inhibition of Gluconeogenesis in Rat Hepatocytes; assay type: cell-based; details: 10 mM lactate, 1 mM pyruvate, 1 hour incubation, read-out: IC50 Glucose Production
Protocol: Hepatocytes were prepared from overnight fasted Sprague-Dawley rats (250–300 g) according to the procedure of Berry and Friend (Berry, M. N., Friend, D. S., 1969, J. Cell. Biol. 43, 506–520) as modified by Groen (Groen, A. K., Sips, H. J., Vervoorn, R. C., Tager, J. M. , 1982, Eur. J. Biochem. 122, 87–93). Hepatocytes (75 mg wet weight/ml) were incubated in 1 ml Krebs-bicarbonate buffer containing 10 mM Lactate, 1 mM pyruvate, 1 mg/ml BSA, and test compound concentrations from 1 to 500 μM. Incubations were carried out in a 95% oxygen, 5% carbon dioxide atmosphere in closed, 50-ml Falcon tubes submerged in a rapidly shaking water bath (37° C.). After 1 hour, an aliquot (0.25 ml) was removed, transferred to an Eppendorf tube and centrifuged. 50 μl of supernatant was then assayed for glucose content using a Sigma Glucose Oxidase kit as per the manufacturer's instructions.

[4] = Oral Absorption Determinations of Prodrugs in the Rat; details: normal fed rats; for % excreted i.p.: 30 mg/kg intraperitoneal; for % excreted i.p. / % excreted p.o.: parent compound 3.1 in 24 h urine; for % excreted p.o.: 30 mg/kg oral gavage; for % absorption: 30 mg/kg, urinary excretion oral vs intraperitoneal
[5] = Rattus norvegicus, iv, 10 mg/kg i.v.

melting point: 258 to 259 °C
Compound: CCCc1cnc(N)nc1-c1ccc(P(=O)(O)O)o1 [Compound 16.1, 2-amino-5-propyl-4-[2-(5-phosphono)furanyl]pyrimidine]

Compound: CCc1c(SC#N)cc(OCP(=O)(O)O)c2nc(N)sc12 [Compound 41.1, 2-amino-7-ethyl-6-thiocyano-4-phosphonomethoxybenzothiazole]
inhibition in vivo at 10 mg/kg (Fasted Rats; [5]): 80%

Compound: CC(C)Cc1sc(Br)nc1-c1ccc(P(=O)(O)O)o1 [Compound 5.1, 2-bromo-5-isobutyl-4-[2-(5-phosphono)furanyl]thiazole]
Liver Conc. [1]: 6.7 ± 0.7 nmol/g | Plasma Conc. [1]: 100 ± 5.7 µM

concentration at 1 h [1]: 22 ± 1.5 µM | bioavailability ([2]; Sprague-Dawley, rat, urine): 22%
Compound: CCCc1oc(N)nc1-c1ccc(P(=O)(O)O)o1 [Compound 10.2, 2-Amino-5-propyl-4-[2-(5-phosphono)furanyl]oxazole]
% Glucose Lowering (maximum) (Fasted Rat; dose 90 mg/kg, time point 3 h): 36%

Compound: CCOC(=O)CNP(=O)(Oc1ccccc1)c1ccc(-c2nc(N)sc2CC(C)C)o1 (stereo not shown) [Compound 31.8, 2-amino-5-isobutyl-4-{2-[5-(O-phenyl-N-ethoxycarbonylmethyl)phosphonamido]furanyl}thiazole]
IC50 [3]: 3000 nM | % Oral bioavailability [2]: 14%

Compound: CCCSc1sc(N)nc1-c1ccc(P(=O)(O)O)o1 [Compound 3.58, 2-Amino-5-propylthio-4-[2-(5-phosphono)furanyl]thiazole hydrobromide]
IC50 ([3]; Hepatocyte): 1200 nM | inhibition in vivo at 10 mg/kg (Fasted Rats; [5]): 82%

Compound: CC(C)Cc1sc(N)nc1-c1ccc(P(=O)(OCOC(=O)C(C)(C)C)OCOC(=O)C(C)(C)C)o1 [Compound 20.4, 2-Amino-5-isobutyl-4-{2-[5-(dipivaloyloxymethyl)phosphono]furanyl}thiazole]
% Oral bioavailability [2]: 11%

Compound: 2-Methyl-5-isobutyl-4-{2-[5-bis(thiobenzoylmethyl)phosphono]furanyl}thiazole [Compound 19.9]
% Oral bioavailability [2]: 18.5%

% Oral bioavailability [2]: 19%
Compound: COC(=O)C(C)NP(=O)(Oc1ccccc1)c1ccc(-c2nc(N)sc2CC(C)C)o1 (stereo not shown) [Compound 31.6, 2-amino-5-isobutyl-4-{2-[5-(O-phenyl-N-(1-methoxycarbonyl)ethyl)phosphonamido]furanyl}thiazole]
IC50 [3]: 2300 nM | % Glucose Lowering (maximum) (Fasted Rat; dose 10 mg/kg, time point 3 h): 60%

Compound: Cc1nc(-c2ccc(P(=O)(OCOC(=O)C(C)(C)C)OCOC(=O)C(C)(C)C)o2)cs1 [Compound 20.1, 2-methyl-4-[2-(5-dipivaloyloxymethylphosphono)furanyl]-thiazole]
% Oral bioavailability [2]: 46%

Compound: CCCSc1oc(N)nc1-c1ccc(P(=O)(O)O)o1 [Compound 10.43, 2-Amino-5-propylthio-4-[2-(5-phosphono)furanyl]oxazole]
inhibition in vivo at 10 mg/kg (Fasted Rats; [5]): 61%

Compound: Cc1ccc(OCP(=O)(O)O)c2nc(N)sc12 [Compound 35.3, 2-Amino-4-phosphonomethoxy-7-methylbenzothiazole]
inhibition in vivo at 10 mg/kg (Fasted Rats; [5]): 65%

Compound: CSc1[se]c(N)nc1-c1ccc(P(=O)(O)O)o1 [Compound 3.71, 2-Amino-5-methylthio-4-[2-(5-phosphono)furanyl]selenazole]
i.v. Glucose Lowering, % (Fasted Rats; 10 mg/kg i.v.): 72%

Compound: CCc1sc(N)nc1-c1ccc(P(=O)(O)O)o1 [Compound 3.21, 2-Amino-5-ethyl-4-[2-(5-phosphono)furanyl]thiazole]
Plasma Conc. [1]: 25 ± 1 µM

Compound: Nc1nc(-c2ccc(P(=O)(O)O)o2)c(C2CC2)s1 [Compound 3.27, 2-Amino-5-cyclopropyl-4-[2-(5-phosphono)furanyl]thiazole]
% Glucose Lowering (maximum) (Fasted Rat; dose 60 mg/kg, time point 3 h): 61% | % Oral bioavailability [2]: 32%

Compound: CC(C)Cc1sc(N)nc1-c1ccc(P2(=O)OCCC(c3ccc(F)c(Br)c3)O2)o1 (stereo not shown) [Compound 19.42, 2-Amino-5-isobutyl-4-{2-[5-(1-(4-fluoro-3-bromophenyl)-1,3-propyl)phosphono]furanyl}thiazole]
% Glucose Lowering (maximum) (Fasted Rat; dose 30 mg/kg, time point 3 h): 26% | % Oral bioavailability [2]: 10% | % excreted i.p. [4]: 15.4% | % excreted p.o. [4]: 8.1% | % absorption [4]: 52%

concentration at 1 h [1]: 66.3 ± 3.9 µM | Liver Conc. [1]: 13.1 ± 2.3 nmol/g
Compound: Nc1ccc(C2CC2)c(-c2ccc(P(=O)(O)O)o2)n1 [Compound 15.20, 2-Amino-5-cyclopropyl-6-[2-(5-phosphono)furanyl]pyridine]
inhibition in vivo at 10 mg/kg (Fasted Rats; [5]): 24%

Compound: CC(C)Cc1sc(N)nc1-c1ccc(P2(=O)OCCC(c3cc(Cl)cc(Cl)c3)O2)o1 (stereo not shown) [Compound 19.48, 2-Amino-5-isobutyl-4-{2-[5-(1-(3,5-dichlorophenyl)-1,3-propyl)phosphono]furanyl}thiazole]
IC50 [3]: 6500 nM | % Glucose Lowering (maximum) (Fasted Rat; dose 30 mg/kg, time point 2 h): 63% | % Oral bioavailability [2]: 12% | % excreted i.p. [4]: 11.3% | % excreted p.o. [4]: 11.6% | % absorption [4]: 100%

Compound: CCc1sc(N)nc1C(=O)OCP(=O)(O)O [Compound 18.3, 2-amino-5-ethyl-4-phosphonomethoxycarbonylthiazole]
inhibition in vivo at 10 mg/kg (Fasted Rats; [5]): 75%

Compound: Cc1nc(-c2ccc(P(=O)(O)O)o2)c(CC(C)C)s1 [Compound 3.2, 2-Methyl-5-isobutyl4-[2-(5-phosphono)furanyl]thiazole]
inhibition in vivo at 30 mg/kg (Fasted Rats; Rattus norvegicus, iv, 30 mg/kg i.v.): 55%

Compound: Nc1nc(C(=O)OCP(=O)(O)O)c(Br)s1 [Compound 18.2, 2-amino-5-bromo-4-phosphonomethoxycarbonylthiazole]
inhibition in vivo at 10 mg/kg (Fasted Rats; [5]): 80%

Compound: CCOC(=O)OCOP(=O)(OCOC(=O)OCC)c1ccc(-c2nc(N)sc2CC(C)C)o1 [Compound 20.9, 2-Amino-5-isobutyl-4-{-2-[5-bis(ethoxycarbonyloxymethyl)phosphono]-furanyl}thiazole]
IC50 [3]: 2200 nM | % Glucose Lowering (maximum) (Fasted Rat; dose 90 mg/kg, time point 3 h): 67% | % Oral bioavailability [2]: 17.4%

Compound: Cc1nc(-c2ccc(P(=O)(OCOC(=O)C(C)(C)C)OCOC(=O)C(C)(C)C)o2)c(CC(C)C)s1 [Compound 20.3, 2-Methyl-5-isobutyl-4-{2-[5-(dipivaloyloxymethyl)phosphono]furanyl}thiazole]
% Oral bioavailability [2]: 17.5%

Compound: CC(C)Cc1sc(N)nc1-c1ccc(P2(=O)OCCC(c3cccc(Cl)c3)O2)o1 (stereo not shown) [Compound 19.46, 2-Amino-5-isobutyl-4-{2-[5-(1-(3-chlorophenyl)-1,3-propyl)phosphono]furanyl}thiazole]
% Glucose Lowering (maximum) (Fasted Rat; dose 30 mg/kg, time point 2 h): 53%

Compound: CCOC(=O)c1sc(N)nc1-c1ccc(P(=O)(O)O)o1 [Compound 3.25, 2-Amino-5-ethoxycarbonyl-4-[2-(5-phosphono)furanyl]thiazole]
inhibition in vivo at 10 mg/kg (Fasted Rats; [5]): 76%

Compound: Nc1nc(-c2ccc(P(=O)(O)O)o2)c(-c2cccs2)s1 [Compound 6.3]
inhibition in vivo at 10 mg/kg (Fasted Rats; [5]): 24%

Compound: Cc1nc(-c2ccc(P3(=O)OCCC(c4ccncc4)O3)o2)c(CC(C)C)s1 (stereo not shown) [Compound 19.17, 5-Isobutyl-2-methyl-4-{2-[5-(1-(4-pyridyl)-1,3-propyl)phosphono]furanyl}-thiazole]
% Oral bioavailability [2]: 16.2%

Compound: CC(C)Cc1sc(N)nc1-c1ccc(P2(=O)OCCC(c3ccncc3)O2)o1 (stereo not shown) [Compound 19.18, 2-Amino-5-isobutyl-4-[2-{5-[1-(4-pyridyl)-propan-1,3-yl]phosphonol}furanyl)-thiazole]
IC50 [3]: 10000 nM
